Values quoted from earlier work as cited in patent US20050239746A1, “Pharmaceutical composition” (priority 2002, published 2005).

Legend:
[1] = test system: isolated guinea pig trachea; conditions: 0.1M aqueous solution in 40% w/v 2-hydroxypropyl-beta-cyclodextrin
[2] = intravenous infusion, 3 g single dose, 8 healthy volunteers

Molecule: CC(C)c1cccc(C(C)C)c1O [Propofol, 2,6 di-isopropylphenol]
- muscle relaxant activity compared with the lipid emulsion [1]: three times higher

Molecule: 2-hydroxypropyl-beta-cyclodextrin [Encapsin-HPB]
- safety and tolerability [2]: safe and well tolerated
